What all share (type): biochemical
Experiment [1] addresses T1, alkaline phosphatase from bovine intestine (Bos taurus, UniProt P19111). Nature of the experiment: AP colorimetric assay. The settings on record: detergent at two concentrations above its critical micelle concentration.
Target sequence in this assay (P19111 20-533): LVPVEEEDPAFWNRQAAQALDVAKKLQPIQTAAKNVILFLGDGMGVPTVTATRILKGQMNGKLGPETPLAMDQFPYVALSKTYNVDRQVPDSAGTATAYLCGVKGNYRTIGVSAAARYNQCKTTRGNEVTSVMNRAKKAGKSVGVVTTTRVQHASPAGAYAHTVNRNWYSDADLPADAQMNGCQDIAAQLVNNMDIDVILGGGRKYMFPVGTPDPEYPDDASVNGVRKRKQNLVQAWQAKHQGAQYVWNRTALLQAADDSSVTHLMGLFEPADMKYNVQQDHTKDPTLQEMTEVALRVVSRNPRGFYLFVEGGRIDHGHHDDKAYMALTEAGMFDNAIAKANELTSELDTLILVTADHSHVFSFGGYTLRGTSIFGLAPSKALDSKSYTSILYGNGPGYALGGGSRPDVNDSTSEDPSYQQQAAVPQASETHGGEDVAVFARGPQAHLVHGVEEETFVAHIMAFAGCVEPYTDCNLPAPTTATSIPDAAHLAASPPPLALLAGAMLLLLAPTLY
Experiment [2] has as its target T1, alkaline phosphatase from bovine intestine. Nature of the experiment: AP fluorometric assay. As to conditions: for Hill coefficient / kcat / Km / Vmax: hydrolysis of DiFMUP by AP; for Km / Vmax / IC50 / apparent AP Vmax: ± 95% confidence interval; for IC50: 60 min; for apparent AP Vmax: substrate DiFMUP.
Target sequence in this assay (P19111 20-506 limits assumed): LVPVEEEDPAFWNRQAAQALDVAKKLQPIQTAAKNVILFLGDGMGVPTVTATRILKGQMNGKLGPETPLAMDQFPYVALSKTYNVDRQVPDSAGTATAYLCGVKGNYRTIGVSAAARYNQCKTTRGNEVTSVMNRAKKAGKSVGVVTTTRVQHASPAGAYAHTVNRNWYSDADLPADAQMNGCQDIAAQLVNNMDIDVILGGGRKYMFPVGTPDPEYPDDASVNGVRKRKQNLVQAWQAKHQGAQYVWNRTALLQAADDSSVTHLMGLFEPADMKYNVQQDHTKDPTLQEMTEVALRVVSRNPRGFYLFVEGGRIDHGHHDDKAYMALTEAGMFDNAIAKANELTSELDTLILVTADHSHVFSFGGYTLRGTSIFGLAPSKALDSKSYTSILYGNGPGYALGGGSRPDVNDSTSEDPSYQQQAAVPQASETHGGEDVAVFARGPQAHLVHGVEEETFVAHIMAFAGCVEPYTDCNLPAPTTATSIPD
Experiment [3] has as its system alkaline phosphatase from bovine intestine. Nature of the experiment: Reversibility test by rapid dilution of the enzyme-inhibitor complex.

For the compound `C[C@H](CCC(=O)NCCC[N+](C)(C)CCCS(=O)(=O)[O-])[C@H]1CC[C@H]2[C@@H]3[C@H](O)C[C@@H]4C[C@H](O)CC[C@]4(C)[C@H]3C[C@H](O)[C@]12C` [CHAPS], the “increase in AP activity” value in experiment [1] is “up to 40%”.
With `C[S+](C)[O-]` [DMSO], the “decrease in reaction velocity” value in experiment [2] (DMSO concentrations up to 1.5%) is recorded as “less than 10%”.
For `Cc1cc(=O)oc2c(F)c(OP(=O)(O)O)c(F)cc12` [DiFMUP, 6,8-difluoro-4-methylumbelliferyl phosphate], in experiment [2] (pH 6.5, 37 °C), the Hill coefficient (commonly a measure of the steepness of the concentration-response curve) is 1; the kcat (in general, the maximal rate divided by the concentration of active sites) turned out to be 37 s⁻¹; the Km (as a rule, the substrate concentration at which the rate is half of its maximum) was found to be 0.2 ± 0.04 µM; the Vmax (commonly the top rate of the reaction or transport when substrate is in excess) came to 32 ± 2 µmol/min/mg. Also, in experiment [2] (pH 7.0, 37 °C), the Hill coefficient stood at 1, the kcat was 82 s⁻¹, the Km came out at 0.5 ± 0.04 µM and the maximum rate (Vmax) was 71 ± 3 µmol/min/mg. For the same compound, in experiment [2] (pH 7.5, 37 °C), the Hill coefficient came to 1, the kcat is 147 s⁻¹, the Michaelis constant (Km) amounted to 1.4 ± 0.2 µM and the maximum rate (Vmax) amounted to 126 ± 3 µmol/min/mg. For the same compound, in experiment [2] (pH 8.0, 37 °C), the Hill coefficient came to 1, the catalytic constant (kcat) is 211 s⁻¹, the Km was determined as 2.8 ± 0.1 µM and the maximum rate (Vmax) was found to be 181 ± 1 µmol/min/mg.
Regarding `[Na+].[Na+].[Na+].[O]=[V]([O-])([O-])[O-]` [Na3VO4, sodium orthovanadate], the concentration for half-maximal inhibition (IC50) (commonly the concentration that inhibits the measured activity by half) is 1000 ± 400 nM in experiment [2] (0.025 μM DiFMUP, pH 6.5, 37 °C); 1500 ± 400 nM in experiment [2] (0.050 μM DiFMUP, pH 6.5, 37 °C); 1600 ± 300 nM in experiment [2] (0.100 μM DiFMUP, pH 6.5, 37 °C); 2300 ± 400 nM in experiment [2] (0.200 μM DiFMUP, pH 6.5, 37 °C); 4000 ± 400 nM in experiment [2] (0.400 μM DiFMUP, pH 6.5, 37 °C); 6100 ± 900 nM in experiment [2] (0.800 μM DiFMUP, pH 6.5, 37 °C). Besides, the IC50 in experiment [2] (1.600 μM DiFMUP, pH 6.5, 37 °C) turned out to be 11000 ± 3000 nM. In experiment [2] (IC50 rises with DiFMUP concentration, apparent KM but not Vmax rises), the mode of inhibition entry is listed as “competitive”. Besides, the “apparent AP Vmax” value in experiment [2] (Na3VO4 0.084 μM) was 567 ± 18 RFU min^−1; in experiment [2] (Na3VO4 0.250 μM), 561 ± 35 RFU min^−1; in experiment [2] (Na3VO4 0.760 μM), 566 ± 24 RFU min^−1; in experiment [2] (Na3VO4 2.28 μM), 546 ± 32 RFU min^−1; in experiment [2] (Na3VO4 6.68 μM), 513 ± 53 RFU min^−1. For the same compound, the reversibility of inhibition result in experiment [3] is “rapidly reversible”.
Triton X-100: in experiment [1], the “increase in AP activity” value is “up to 40%”.
Take Tween 20: the “increase in AP activity” value in experiment [1] is given as “up to 40%”.

Values taken from PMC4822204 (Biomolecular Detection and Quantification, 2015).
